Measurements published in patent publication US20090209633A1, “Treatment of Pain With Resiniferatoxin and Related Analogs” (priority 2006, published 2009).
Where “and” joins values, the source holds several entries; their conditions need not be identical. Identical values can stand only once.

What was measured:
[1] = target: T1, rat TRPV1 (Rattus norvegicus, UniProt O35433); assay: Whole-cell currents in Xenopus laevis oocytes expressing TRPV1 (double-electrode voltage clamp); format: cell-based; conditions: capsaicin 300 nM; for activation time (10-90% of the rising phase): holding −60 mV, protons pH 5.5, RTX 10 nM; for reversal potential of agonist-induced whole-cell current: ramp −80 to +80 mV in 1 s; for reversal/deactivation of current on agonist removal: −60 mV, pH 5.5, NADA 10 μM, washout >15 min for RTX
T1 construct: expressed in transfected cells; host or cells: Xenopus laevis oocytes injected with TRPV1 cRNA
T1 sequence (O35433 whole entry): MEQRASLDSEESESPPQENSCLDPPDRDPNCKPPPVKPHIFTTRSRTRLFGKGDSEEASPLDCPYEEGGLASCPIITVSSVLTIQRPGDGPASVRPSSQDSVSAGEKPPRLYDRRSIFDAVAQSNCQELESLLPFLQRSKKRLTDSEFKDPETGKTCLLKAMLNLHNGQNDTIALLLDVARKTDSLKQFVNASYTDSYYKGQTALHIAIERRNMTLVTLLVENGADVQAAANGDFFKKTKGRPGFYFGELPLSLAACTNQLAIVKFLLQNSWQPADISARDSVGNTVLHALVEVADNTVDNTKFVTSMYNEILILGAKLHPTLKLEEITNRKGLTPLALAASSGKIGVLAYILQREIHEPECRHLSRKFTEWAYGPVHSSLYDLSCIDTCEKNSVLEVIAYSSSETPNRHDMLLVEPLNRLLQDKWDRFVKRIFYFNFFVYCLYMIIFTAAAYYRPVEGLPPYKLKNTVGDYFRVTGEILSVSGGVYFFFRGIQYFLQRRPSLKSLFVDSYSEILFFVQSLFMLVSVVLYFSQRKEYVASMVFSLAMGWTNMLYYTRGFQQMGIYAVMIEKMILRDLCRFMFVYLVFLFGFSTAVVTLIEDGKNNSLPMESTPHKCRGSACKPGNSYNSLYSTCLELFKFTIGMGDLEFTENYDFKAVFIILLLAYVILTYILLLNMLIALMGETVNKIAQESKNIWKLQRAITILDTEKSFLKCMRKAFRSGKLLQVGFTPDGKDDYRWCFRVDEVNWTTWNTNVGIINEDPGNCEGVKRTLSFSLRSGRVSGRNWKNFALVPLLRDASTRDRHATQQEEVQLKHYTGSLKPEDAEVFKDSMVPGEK
Description: Rat TRPV1 dcRNA. Cloned rat TRPV1 was obtained from the Julius Lab at the University of California San Francisco. TRPV1 cRNA was obtained using standard techniques known to those of skill in the art.
Electrophysiology. Whole-cell and single-channel currents were recorded from rat DRG neurons in culture and from Xenopus laevis oocytes injected with rat TRPV1 cRNA. Animals were cared for according to the standards of the National Institutes of Health (NIH). All animal use protocols were approved by Southern Illinois University School of Medicine Animal Care Committee.
(§1) Oocytes were obtained by an abdominal incision after anaesthetizing the frog by immersion in a 0.05% solution of 3-aminobenzoic acid ethyl ester (MS222). Animals were killed by a subcutaneous injection of a 2% solution of MS222 according to NIH guidelines. One day after separating the oocytes from the follicular layer, 50-70 nl TRPV1 cRNA was injected using a Drummond Nanoject (Drummond Scientific Co., Broomall, Pa., USA). Oocytes were used for recording from 3 days after the injection. Double-electrode voltage clamp was performed using a Warner amplifier (Warner Instruments, Hamden, Conn., USA). Data were digitized and stored on videotape or directly stored on the computer using a LabView interface (National Instruments, Austin, Tex., USA). Experiments were performed at 21-23° C. Oocytes were placed in a Perspex chamber superfused (5-10 ml min^−1) with Ca^2+-free Ringer solution containing (mM): NaCl 100, KCl 2.5 and Hepes 5; pH adjusted to 7.35 with NaOH. Current-voltage relationships were measured using 1-s voltage ramps from −80 to +80 mV.
This example tests the activation of whole-cell currents in oocytes by RTX. Whole-cell currents were recorded from oocytes heterologously expressing TRPV1. […] Agonist-induced currents are shown after subtracting the leak current in the absence of the agonist. […] In order to quantify this, we calculated the ratio of outward and inward currents. […] PKC activation increases sensitivity as well as TRPV1 translocation. […] (Szallasi et al. 1990b; Caterina et al. 1997; Marshall et al. 2003.)

[2] = target: T2, cloned TRPV1 (Rattus norvegicus, UniProt O35433); assay: Single-channel currents in excised (outside-out) patches from oocytes expressing cloned TRPV1; format: cell-based; conditions: for single-channel conductance / single-channel current amplitude: excised patches, cloned TRPV1; for Po: outside-out/excised patches, RTX, capsaicin 100 nM
T2 construct: expressed in transfected cells; host or cells: Xenopus laevis oocytes injected with TRPV1 cRNA
T2 sequence (O35433 whole entry): as above
Description: as §1
For single-channel recording in cell-attached patches from DRG neurons, the bath solution contained (mM): potassium gluconate 140, KCl 2.5, MgCl2 1, Hepes 5 and EGTA 1.5; pH adjusted to 7.35 with NaOH. The patch pipettes were made from glass capillaries (Drummond, Microcaps), coated with Sylgard (Dow Corning, Midland, Mich., USA). For cell-attached patches, the patch pipettes were filled with a solution that contained (mM): sodium gluconate 140, NaCl 10, MgCl2 1, Hepes 5 and EGTA 1.5; pH adjusted to 7.35 with NaOH. While recording from cell-attached patches, in order to avoid differences in the driving force because of the differences in the membrane potential, the external NaCl was replaced by an equal amount of KCl in order to nullify the membrane potential. For outside-out patches, the pipette solution contained (mM): sodium gluconate 90, NaCl 10, BAPTA 10, Hepes 10, K2ATP2 and GTP 0.25; pH adjusted to 7.35 with NaOH. The bath solution contained (mM): sodium gluconate 100, KCl 2.5, MgCl2 1, Hepes 5 and EGTA 1.5; pH adjusted to 7.35 with NaOH. All the experiments were performed at room temperature (21-23° C.). Agar-bridge electrodes were used to avoid changes in junction potential. The currents were recorded using a WPC 100 (Warner Instruments) or Axopatch 2B (Axon Instruments, Union City, Calif., USA) patch-clamp amplifier. Data were filtered at 10 kHz (Axopatch 2B), digitized (VR-10B, Instrutech Corp.), and stored on videotapes. For the analysis of amplitude and open probability (Po), the data were filtered at 2.5 kHz (−3 db frequency with an 8-pole low-pass Bessel filter, Warner Instruments) and digitized at 5 kHz. For dwell-time analysis, the data were filtered at 10 kHz and digitized at 50 kHz.
Single-channel analysis. Single-channel current amplitude and Po were estimated from all-point current amplitude histograms (Channel 2 software kindly provided by Michael Smith, Australian National University, Can berra, Australia) and fitted to Gaussian densities (Origin, OriginLab Corp., Northampton, Mass., USA). For current-voltage relationships, the amplitudes were determined by fitting a Gaussian curve to an all-point histogram. Po was determined using unedited segments of data, which were typically 1-5 min long. For multiple channel patches, the mean Po was measured as nPo, where n is the number of channels in the patch. Chord conductance was measured at +60 or −60 mV. Slope conductance was determined by linear fits to current-voltage data between +20 and +100 mV or −20 and −100 mV.
Next we recorded single-channel currents from the cloned TRPV1 in excised patches. […] (Premkumar et al. 2002.)
Next we recorded single-channel currents using outside-out patches from oocytes expressing TRPV1.

[3] = oocytes expressing TRPV1, +60 mV

Row | Structure (SMILES) | activation time (10-90% of the rising phase) [1] [s] | reversal potential of agonist-induced whole-cell current ([1]; RTX 10 nM) [mV] | ratio of outward and inward currents (rectification) ([1]; ramp −80 to +80 mV, RTX 10 nM) | reversal/deactivation of current on agonist removal ([1]; RTX 10 nM) | single-channel conductance ([2]; +60 mV) [pS] | single-channel current amplitude ([2]; +60 mV) [pA] | Po ([2]; +60 mV) | current amplitudes of multiple conductance states [2, 3] | single-channel conductance of multiple conductance states [2, 3] | single-channel conductance ([2]; −60 mV) [pS] | single-channel current amplitude ([2]; −60 mV) [pA] | Po ([2]; −60 mV)
1 | C=C(C)[C@]12C[C@@H](C)[C@@]34O[C@](Cc5ccccc5)(O[C@@H]1[C@@H]3C=C(COC(=O)Cc1ccc(O)c(OC)c1)C[C@]1(O)C(=O)C(C)=C[C@@H]41)O2 [RTX, resiniferatoxin] | 61.4±4.4 | −10.4±0.53 | 2.35±0.97 | did not deactivate even after a prolonged washout | 103.3±0.83 | 6.19±0.05 | 0.88±0.03 | 3.5 pA and 5.3 pA and 6.9 pA | 58 pS and 88 pS and 115 pS | 43±2.8 | 2.59±0.17 | 0.83±0.05
2 | COc1cc(CNC(=O)CCCC/C=C/C(C)C)ccc1O [capsaicin] | 23.9±1.5 | −12.3±0.42 | – | could be reversed readily | 95.3±1.7 | 5.71±0.1 | 0.4±0.03 | – | – | 41.8±1.3 | 2.52±0.08 | 0.14±0.01
